Assay type in all cases: cell-based
Assay [1] has as its system P-388 (suspension culture of a lymphoid neoplasm from DBA/2 mouse). Briefly: Antitumor screening, growth inhibition of P-388 cells. The settings on record: P388, 72 h, three days of incubation at 37°C, approximate IC₅₀ vs control wells, duplicate. The method, then: (§1) Cells were maintained in logarithmic phase of growth in Eagle's Minimum Essential Medium, with Earle's Balanced Salts, with 2.0 mM L-Glutamine, with non-essential Amino Acids, without Sodium Bicarbonate (EMEM/NEAA); supplemented with 10% Fetal Calf Serum (FCS), 10⁻² M Sodium Bicarbonate and 0,1 g/1 Penicillin-G + Streptomycin Sulfate.
(§2) A simple screening procedure was carried out to determine and compare the antitumor activity of these compounds, using an adapted form of the method described by Bergeron et al., Biochem. Biophys. Res. Comm. (1984) 121 848 [Reference 6]. The antitumor cell employed was P-388 (suspension culture of a lymphoid neoplasm from DBA/2 mouse), A-549 (monolayer culture of a human lung carcinoma), HT-29 (monolayer culture of a human colon carcinoma) and MEL-28 (monolayer culture of a human melanoma).
P-388 cell were seeded into 16 mm wells at 1 x 10⁴ cells per well in 1 ml aliquots of MEM 5FCS containing the indicated concentration of drug. A separate set of cultures without drug was seeded as control growth to ensure that cells remained in exponential phase of growth. All determinations were carried out in duplicate. After three days of incubation at 37°C, 10% CO₂ in a 98% humid atmosphere, an approximate IC₅₀ was determined by comparing the growth in wells with drug to the growth in control wells.

Assay [2] has as its system A-549 (monolayer culture of a human lung carcinoma). Nature of the assay: Antitumor screening, growth inhibition of A-549 cells (Crystal Violet staining). To be noted: A549, 72 h, three days of incubation at 37°C, approximate IC₅₀ vs control wells, duplicate. The procedure:
as §1, §2
(§3) A-549, HT-29 and MEL-28 were seeded into 16 mm wells at 2 x 10⁴ cells per well in […] of MEM 10FCS containing the indicated concentration of drug. A separate set of cultures without drug was seeded as control growth to ensure that cells remained in exponential phase of growth. All determinations were carried out in duplicate. After three days of incubation at 37°C, 10% CO₂ in a 98% humid atmosphere, the wells were stained with 0.1% Crystal Violet. An approximate IC₅₀ was determined by comparing the growth in wells with drug to the growth in control wells.

Assay [3] has as its system HT-29 (monolayer culture of a human colon carcinoma). Nature of the assay: Antitumor screening, growth inhibition of HT-29 cells (Crystal Violet staining). The settings on record: 72 h, three days of incubation at 37°C, approximate IC₅₀ vs control wells, duplicate. The procedure:
as §1, §2, §3

Assay [4] deals with MEL-28 (monolayer culture of a human melanoma). Nature of the assay: Antitumor screening, growth inhibition of MEL-28 cells (Crystal Violet staining). The settings on record: SK-MEL-28, 72 h, three days of incubation at 37°C, approximate IC₅₀ vs control wells, duplicate. The method, then: as §1, §2, §3

IC50 data for four compounds are collected here from patent EP0687673A1, “Oxazole derivatives as antitumoral agents” (PHARMA MAR, S.A., priority 1994, dated 1995).

In brackets after ≈: the same amount, converted by molar mass.

What is called IC50 is the midpoint of a concentration-inhibition curve. A low value points to greater potency. With `CC(O)C(O)C(O)CC(O)c1coc(Cc2cnco2)n1` (stereo not drawn), the half-inhibitory concentration (IC50) was > 20 µg/mL in assay [1], 5 µg/mL (≈ 16.8 µM) in assay [2], 5 µg/mL (≈ 16.8 µM) in assay [3] and 5 µg/mL (≈ 16.8 µM) in assay [4].
With `CCCCCCCCCCCCCCCCCCCCC(=O)OC(CC(O)C(O)C(C)O)c1coc(Cc2cnco2)n1` (stereo not drawn) [Digonazole (6), Digonazole], the IC50 in assay [1] worked out at 2.5 µg/mL (≈ 4.12 µM); in assay [2], 0.2 µg/mL (≈ 0.33 µM); in assay [3] it was 0.2 µg/mL (≈ 0.33 µM).
On to `CCCCCCCCCCCCCCCCCCCCC(=O)OC(CC(OC(C)=O)C(OC(C)=O)C(C)OC(C)=O)c1coc(Cc2cnco2)n1` (stereo not drawn) [Digonazole triacetate (8), Digonazole triacetate], for which the half-inhibitory concentration (IC50) is 0.2 µg/mL in assay [1], 0.01 µg/mL in assay [2], 0.02 µg/mL in assay [3] and 0.01 µg/mL in assay [4].
As to `CC(=O)OC(CC(OC(C)=O)C(OC(C)=O)C(C)OC(C)=O)c1coc(Cc2cnco2)n1` (stereo not drawn) [Tetraacetoxyhexyl dioxazole (10), Tetraacetoxyhexyl dioxazole], the IC50 turned out to be 10 µg/mL (≈ 21.4 µM) in assay [1], 1 µg/mL (≈ 2.14 µM) in assay [2], 0.5 µg/mL (≈ 1.07 µM) in assay [3] and 10 µg/mL (≈ 21.4 µM) in assay [4].
